Ki data for 26 compounds are collected here from US20110021565A1, “PIPERIDINE DERIVATIVES AS NK3 ANTAGONISTS” (priority 2007, published 2011).

pKi: −log10 of the molar value.

One experiment addresses T1, recombinant human NK3 receptor (Homo sapiens, UniProt P29371).
T1 construct: expressed in transfected cells; host or cells: HEK293 cells, transient expression; membrane preparation
T1 sequence (P29371 1-465): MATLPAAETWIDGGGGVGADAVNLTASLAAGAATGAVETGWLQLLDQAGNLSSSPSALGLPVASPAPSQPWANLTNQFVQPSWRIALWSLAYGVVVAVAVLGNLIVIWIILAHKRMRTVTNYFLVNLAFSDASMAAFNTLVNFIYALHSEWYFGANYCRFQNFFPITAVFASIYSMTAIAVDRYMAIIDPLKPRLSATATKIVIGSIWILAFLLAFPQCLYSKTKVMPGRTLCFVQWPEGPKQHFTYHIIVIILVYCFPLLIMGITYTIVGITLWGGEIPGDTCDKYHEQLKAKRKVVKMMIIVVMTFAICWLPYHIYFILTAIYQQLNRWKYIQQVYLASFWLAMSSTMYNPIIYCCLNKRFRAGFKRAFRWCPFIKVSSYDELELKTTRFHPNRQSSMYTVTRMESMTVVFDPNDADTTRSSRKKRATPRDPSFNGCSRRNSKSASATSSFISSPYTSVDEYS
The experiment can be described thus: [3H]SR142801 competition binding assay. Particulars: [3H]SR142801, membranes of HEK293 cells transiently expressing recombinant human NK3 receptor; read-out: hNK3 Ki. Summed up:
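Ki derived by Cheng-Prusoff from Hill-fitted IC50 curves, duplicates, 10 μM SB222200 defining nonspecific binding. Radioligand used at KD concentration against compound at 0.0003-10 μM; transiently transfected HEK293 membranes, 5 μg/well, 75 min room temperature, Tris-HCl/MnCl2/phosphoramidon/BSA pH 7.4. Filter-bound counts read by scintillation.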
In the case of `CN(Cc1ccc(-c2ccncc2)cc1)C(=O)C(C)(CCN1CCC(NS(C)(=O)=O)CC1)c1ccc(Cl)c(Cl)c1` (stereo not drawn) [Example 20, 2-(3,4-Dichloro-phenyl)-4-(4-methanesulfonyl-amino-piperidin-1-yl)-2,N-dimethyl-N-(4-pyridin-4-yl-benzyl)-butyramide], the pKi was 6.69.

In the case of `CC(CCN1CCC(NS(C)(=O)=O)CC1)(C(=O)NCc1cccc(OC(F)(F)F)c1)c1ccc(Cl)c(Cl)c1` (stereo not drawn) [Example 21, 2-(3,4-Dichloro-phenyl)-4-(4-methanesulfonyl-amino-piperidin-1-yl)-2-methyl-N-(3-trifluoromethoxy-benzyl)-butyramide], the pKi was 6.83.

In the case of `CC(CCN1CCC(NS(C)(=O)=O)CC1)(C(=O)NCc1ccc(Cl)c(F)c1)c1ccc(Cl)c(Cl)c1` (stereo not drawn) [Example 22, N-(4-Chloro-3-fluoro-benzyl)-2-(3,4-dichloro-phenyl)-4-(4-methanesulfonyl-amino-piperidin-1-yl)-2-methyl-butyramide], the pKi was 7.15.

With `CC(CCN1CCC(NS(C)(=O)=O)CC1)(C(=O)NCc1ccc(OC(F)(F)F)cc1)c1ccc(Cl)c(Cl)c1` (stereo not drawn) [Example 23, 2-(3,4-Dichloro-phenyl)-4-(4-methanesulfonyl-amino-piperidin-1-yl)-2-methyl-N-(4-trifluoromethoxy-benzyl)-butyramide], the pKi was 6.85.

Consider `CC(CCN1CCC(NS(C)(=O)=O)CC1)(C(=O)NCc1ccc(Cl)c(C(F)(F)F)c1)c1ccc(Cl)c(Cl)c1` (stereo not drawn) [Example 24, N-(4-Chloro-3-trifluoromethyl-benzyl)-2-(3,4-dichloro-phenyl)-4-(4-methanesulfonyl-amino-piperidin-1-yl)-2-methyl-butyramide], for which the pKi was 7.15.

With `CN(Cc1ccc(C(F)(F)F)cc1)C(=O)C(C)(CCN1CCC(NS(C)(=O)=O)CC1)c1ccc(Cl)c(Cl)c1` (stereo not drawn) [Example 25, 2-(3,4-Dichloro-phenyl)-4-(4-methanesulfonyl-amino-piperidin-1-yl)-2,N-dimethyl-N-(4-trifluoromethyl-benzyl)-butyramide], the pKi was 7.54.

As to `CN(Cc1ccc(Cl)cc1)C(=O)C(C)(CCN1CCC(NS(C)(=O)=O)CC1)c1ccc(Cl)c(Cl)c1` (stereo not drawn) [Example 26, N-(4-Chloro-benzyl)-2-(3,4-dichloro-phenyl)-4-(4-methanesulfonyl-amino-piperidin-1-yl)-2,N-dimethyl-butyramide], the pKi was 7.58.

In the case of `CC(CCN1CCC(NS(C)(=O)=O)CC1)(C(=O)NCc1ccc(C#N)cc1)c1ccc(Cl)c(Cl)c1` (stereo not drawn) [Example 27, N-(4-Cyano-benzyl)-2-(3,4-dichloro-phenyl)-4-(4-methanesulfonyl-amino-piperidin-1-yl)-2-methyl-butyramide], the pKi is 6.58.

`CN(Cc1cccc(C(F)(F)F)c1)C(=O)C(C)(CCN1CCC(NS(C)(=O)=O)CC1)c1ccc(Cl)c(Cl)c1` (stereo not drawn) [Example 28, 2-(3,4-Dichloro-phenyl)-4-(4-methanesulfonyl-amino-piperidin-1-yl)-2,N-dimethyl-N-(3-trifluoromethyl-benzyl)-butyramide]: the pKi was 7.66.

In the case of `CN(Cc1cccc(Cl)c1)C(=O)C(C)(CCN1CCC(NS(C)(=O)=O)CC1)c1ccc(Cl)c(Cl)c1` (stereo not drawn) [Example 29, N-(3-Chloro-benzyl)-2-(3,4-dichloro-phenyl)-4-(4-methanesulfonyl-amino-piperidin-1-yl)-2,N-dimethyl-butyramide], the pKi is 7.31.

For the compound `CN(Cc1cccc(F)c1)C(=O)C(C)(CCN1CCC(NS(C)(=O)=O)CC1)c1ccc(Cl)c(Cl)c1` (stereo not drawn) [Example 30, 2-(3,4-Dichloro-phenyl)-N-(3-fluoro-benzyl)-4-(4-methanesulfonyl-amino-piperidin-1-yl)-2,N-dimethyl-butyramide], the negative logarithm of the Ki (pKi) is 6.91.

With `CN(Cc1ccc(C(F)(F)F)nc1)C(=O)C(C)(CCN1CCC(NS(C)(=O)=O)CC1)c1ccc(Cl)c(Cl)c1` (stereo not drawn) [Example 31, 2-(3,4-Dichloro-phenyl)-4-(4-methanesulfonyl-amino-piperidin-1-yl)-2,N-dimethyl-N-(6-trifluoromethyl-pyridin-3-ylmethyl)-butyramide], the pKi was 6.30.

For `CN(Cc1ccc(C(F)(F)F)c(F)c1)C(=O)C(CCN1CCC(NS(C)(=O)=O)CC1)c1ccc(Cl)c(Cl)c1` (stereo not drawn) [Example 32, 2-(3,4-Dichloro-phenyl)-N-(3-fluoro-4-trifluoromethyl-benzyl)-4-(4-methanesulfonyl-amino-piperidin-1-yl)-N-methyl-butyramide], the pKi is 7.21.

For `CN(Cc1ccc(C(F)(F)F)cc1)C(=O)C(CCN1CCC(NS(C)(=O)=O)CC1)c1ccc(Cl)c(Cl)c1` (stereo not drawn) [Example 33, 2-(3,4-Dichloro-phenyl)-4-(4-methanesulfonyl-amino-piperidin-1-yl)-N-methyl-N-(4-trifluoromethyl-benzyl)-butyramide], the pKi is 7.09.

Turning to `CN(Cc1ccc(Cl)c(Cl)c1)C(=O)C(CCN1CCC(NS(C)(=O)=O)CC1)c1ccc(Cl)c(Cl)c1` (stereo not drawn) [Example 34, N-(3,4-Dichloro-benzyl)-2-(3,4-dichloro-phenyl)-4-(4-methanesulfonyl-amino-piperidin-1-yl)-N-methyl-butyramide], the negative logarithm of the Ki (pKi) is 7.11.

`CN(Cc1ccc(Cl)c(C(F)(F)F)c1)C(=O)C(CCN1CCC(NS(C)(=O)=O)CC1)c1ccc(Cl)c(Cl)c1` (stereo not drawn) [Example 35, N-(4-Chloro-3-trifluoromethyl-benzyl)-2-(3,4-dichloro-phenyl)-4-(4-methanesulfonyl-amino-piperidin-1-yl)-N-methyl-butyramide]: the negative-log Ki (pKi) was 6.83.

`CS(=O)(=O)NC1CCN(CCC(C(=O)NCc2ccc(Cl)c(C(F)(F)F)c2)c2ccc(Cl)c(Cl)c2)CC1` (stereo not drawn) [Example 36, N-(4-Chloro-3-trifluoromethyl-benzyl)-2-(3,4-dichloro-phenyl)-4-(4-methanesulfonyl-amino-piperidin-1-yl)-butyramide]: the pKi was 6.45.

Regarding `CN(Cc1ccc(Cl)cc1)C(=O)C(CCN1CCC(NS(C)(=O)=O)CC1)c1ccc(Cl)c(Cl)c1` (stereo not drawn) [Example 37, N-(4-Chloro-benzyl)-2-(3,4-dichloro-phenyl)-4-(4-methanesulfonyl-amino-piperidin-1-yl)-N-methyl-butyramide], the pKi is 7.10.

As for `Cc1ccc(CN(C)C(=O)C(CCN2CCC(NS(C)(=O)=O)CC2)c2ccc(Cl)c(Cl)c2)cc1` (stereo not drawn) [Example 38, 2-(3,4-Dichloro-phenyl)-4-(4-methanesulfonyl-amino-piperidin-1-yl)-N-methyl-N-(4-methyl-benzyl)-butyramide], the pKi was 7.03.

For the compound `CN(Cc1cccc(Cl)c1)C(=O)C(CCN1CCC(NS(C)(=O)=O)CC1)c1ccc(Cl)c(Cl)c1` (stereo not drawn) [Example 39, N-(3-Chloro-benzyl)-2-(3,4-dichloro-phenyl)-4-(4-methanesulfonyl-amino-piperidin-1-yl)-N-methyl-butyramide], the pKi is 6.67.

In the case of `CN(Cc1cccc(C(F)(F)F)c1)C(=O)C(CCN1CCC(NS(C)(=O)=O)CC1)c1ccc(Cl)c(Cl)c1` (stereo not drawn) [Example 40, 2-(3,4-Dichloro-phenyl)-4-(4-methanesulfonyl-amino-piperidin-1-yl)-N-methyl-N-(3-trifluoromethyl-benzyl)-butyramide], the pKi was 6.55.

Take `CN(Cc1ccccc1Cl)C(=O)C(CCN1CCC(NS(C)(=O)=O)CC1)c1ccc(Cl)c(Cl)c1` (stereo not drawn) [Example 41, N-(2-Chloro-benzyl)-2-(3,4-dichloro-phenyl)-4-(4-methanesulfonyl-amino-piperidin-1-yl)-N-methyl-butyramide]: the negative-log Ki (pKi) is 6.59.

As to `CS(=O)(=O)NC1CCN(CCC(C(=O)NCc2ccc(Cl)c(Cl)c2)c2ccc(Cl)c(Cl)c2)CC1` (stereo not drawn) [Example 42, N-(3,4-Dichloro-benzyl)-2-(3,4-dichloro-phenyl)-4-(4-methanesulfonyl-amino-piperidin-1-yl)-butyramide], the pKi was 6.72.

Take `CN(Cc1cccc(F)c1)C(=O)C(CCN1CCC(NS(C)(=O)=O)CC1)c1ccc(Cl)c(Cl)c1` (stereo not drawn) [Example 43, 2-(3,4-Dichloro-phenyl)-N-(3-fluoro-benzyl)-4-(4-methanesulfonyl-amino-piperidin-1-yl)-N-methyl-butyramide]: the pKi is 6.59.

In the case of `CN(Cc1ccc(F)c(C(F)(F)F)c1)C(=O)C(CCN1CCC(NS(C)(=O)=O)CC1)c1ccc(Cl)c(Cl)c1` (stereo not drawn) [Example 44, 2-(3,4-Dichloro-phenyl)-N-(4-fluoro-3-trifluoromethyl-benzyl)-4-(4-methanesulfonyl-amino-piperidin-1-yl)-N-methyl-butyramide], the negative-log Ki (pKi) is 6.88.

On to `CN(Cc1ccc(C(F)(F)F)c(F)c1)C(=O)C(C)(CCN1CCC(N(C)S(C)(=O)=O)CC1)c1ccc(Cl)c(Cl)c1` (stereo not drawn) [Example 45, 2-(3,4-Dichloro-phenyl)-N-(3-fluoro-4-trifluoromethyl-benzyl)-4-[4-(methanesulfonyl-methyl-amino)-piperidin-1-yl]-2,N-dimethyl-butyramide], for which the pKi is 8.07.

Still in this experiment, the particulars now being: representative compounds; [3H]SR142801, HEK293 membranes, human NK3 receptor; read-out: Ki NK3 h.
Consider `CN(Cc1ccc(C(F)(F)F)c(F)c1)C(=O)C(C)(CCN1CCC(N(C)S(C)(=O)=O)CC1)c1ccc(Cl)c(Cl)c1` (stereo not drawn) [Example 45, 2-(3,4-Dichloro-phenyl)-N-(3-fluoro-4-trifluoromethyl-benzyl)-4-[4-(methanesulfonyl-methyl-amino)-piperidin-1-yl]-2,N-dimethyl-butyramide], for which the pKi was 8.07.

As a reminder, the pKi is −log10 of the Ki, conventionally taken in molar units.
